Reference: US7785585B2, “Compositions comprising sclareol or derivatives thereof and uses thereof” (Avoca, Inc., priority 2004, dated 2010)

System: Human subcutaneous preadipocytes
Experiment: Lipolysis assay (glycerol release) in differentiated human subcutaneous preadipocytes
Type: cell-based
Description: Human subcutaneous preadipocytes were obtained from human patients undergoing liposuction and pooled. The characteristics of the patients are shown below: • Sex: F • B.M.I.: 27.25 (avg.) • AGE: 43 (avg.) The human subcutaneous preadiposytes were designated lot #SL0028.
Preadipocytes were plated in 96-well plates and allowed to differentiate in the absence of compounds (e.g., sclareolide or sclareolide+GPM) for about two weeks. On the day of the assay, the culture medium was removed and the cells were washed gently with Krebs-Ringer buffer (KRB) in the following manner. 120 μl of medium in the wells was removed and 200 μl/well of KRB was added. The KRB in the wells was removed and another aliquot of 200 μl/well of the KRB was added. The wells were washed one row at a time to ensure that the cells remained moist and stayed attached to the plate.
Next, all of the KRB was removed and the cells were treated with 150 μl/well of the controls or 150 μl/well of the test compounds (resuspended in KRB with 1% BSA), either 1) sclareolide at […] or 2) sclareolide plus GPM at […], and incubated at 37° C. for five hours. The assay was performed in triplicate.
At the end of the treatment, 100 μl/well of the conditioned media was removed from the assay plate and added to the corresponding well of a new plate. […]
The optical density of each well of the new plate was measured at 540 nm.

CC1(C)CCC[C@]2(C)[C@H]3CC(=O)O[C@]3(C)CC[C@@H]12 [Sclareolide]
% Increase in Lipolysis over Control (Sclareolide concentration 10 μg/ml, 37° C. for five hours, glycerol assay, OD 540 nm, triplicate): 55%
Lipolysis over the control (in words) (sclareolide 10 μg/ml, sclareolide+GPM 7.5 μg/ml, five hours): significantly increased lipolysis over the control
